From patent US5750754A, “Heterocyclic compounds” (Zeneca Limited, priority 1993, dated 1998)
Structures can show the parent of a compound that is named as a salt. Where two headings read alike, the source gives them in different places.

Tests used:
[1] = target: T1, human, citrated, platelet-rich plasma (Homo sapiens, UniProt P05106+P08514); experiment: Test (a): inhibition of ADP stimulated platelet aggregation (Born); assay type: cell-based; settings: ADP induced aggregation of human platelet-rich plasma
T1 construct: aggregating human, citrated, platelet-rich plasma; endogenous in cells; host or cells: human platelets in citrated platelet-rich plasma
Text: (i) aggregating human, citrated, platelet-rich plasma by addition of adenosine diphosphate so as to generate a dose-response curve;
(ii) generating a dose-response curve for ADP stimulated platelet aggregation in the presence of increasing amounts of a test compound (generally in the range 10-^5 M to 10-^10 M); and
(iii) calculating a pA2 value indicating potency of platelet aggregation inhibition for the test compound, averaged over several concentrations, from the calculated 50% response value for ADP aggregation in the presence and absence of the test compound.

[2] = target: T2, purified human platelet fibrinogen receptor (GPIIb/IIIa) (Homo sapiens, UniProt P05106+P08514); experiment: Test (b): GPIIb/IIIa ELISA, inhibition of biotinylated fibrinogen binding; settings: purified human platelet GPIIb/IIIa, ELISA
T2 construct: is isolated from human platelet lysates; from tissue
Method: (i) Preparation of human platelet lysates.
Platelet rich plasma (PRP) is harvested by centrifugation (1000 rpm, 15 mins) of whole blood anticoaoulated with acid citrate dextrose (trisodium citrate 85 mM, citric acid 70 mM, d-glucose 110 mM) 1 part to 6 parts blood. Prostacyclin (PGI2, 1 μM) is added to the PRP before centrifugation (2400 pm, 15 mins) and the resulting pellet is resuspended in modified Tyrodes' solution (NaCl 130 mM, KCl 26 mM, NaHCO3 12 mM, NaH2 PO4 0.5 mM, MgCl2 1 mM, CaCl2 20 mM, Glucose 12 mM, HEPES 5 mM) containing bovine serum albumin 3.5 g/L, PGI2 1 μM and hirudin 0.5 U/ml. The platelet suspension is centrifuged (2400 rpm, 15 mins) and the resultant pellet resuspended in 500 μl of lysis buffer (octyl glucoside 50 mM, HEPES 10 mM, NaCl 150 mM, CaCl2 1 mM, MgCl2 1 mM, PMSF 1 mM, NEM 10 mM, leupeptin 0.1 mM), agitated at 4° C. for 15 minutes then centrifuged at 24000 rpm, 15 mins. The supernatant is stored at 4° C. and the pellet re-suspended in 500 μl of lysis buffer. The centrifugation process is repeated a further 3 tlimes, the pooled supernatants being stored at -70° C.
(ii) Receptor purification.
GP Ilb/Ila is isolated from human platelet lysates using a 2 ml peptide (KYGRGDS) coupled CNBr activated Sepharose affinity column. A 1.5 ml volume of platelet lysate is placed on the column and allowed to stand overnight at 4° C. Buffer (30 mls, octyl gluicoside 25 mM, HEPES 10 mM, NaCl 150 mM, CaCl2 1 mM, MgCl2 1 mM, PMSF 1 mM, NEM 10 mM, leupeptin 0.1 mM) is passed through the column and 2 ml fractions are collected throughout. GPIIb/IIIa is eluted with 12 mls of buffer containing HHLGGAKQAGDV (2 mg/ml, pH 7.5), the column is washed using 4 mls buffer and the remaining GPIIb/IIIa eluted using 12 mls buffer containing GRGDSPG (1 mg/ml pH 7.5). The column is finally washed using 20 mls of buffer and can be used for up to three such preparations. Fractions containing FGPIIb/IIIa are identified using gel electrophoresis and immunoblotting, pooled and stored at -70° C.
96 well microtitre plates are coated with 100 μl purified human platelet fibrinogen receptor (GPIIb/IIIa) diluted in coating buffer (Tris-HCl 20 mM, NaCl 150 mM, CaCl2 1 mM, pH 7.4) and left overnight at 4° C. The plates are washed using washing buffer (Tris-HCl 50 mM, NaCl 100 mM, CaCl2 2 mM, pH 7.4) and non-specific binding, blocked by the addition of 200 μl 2% BSA (2 hours, 30° C.). The plates are washed prior to incubation (2 hours, 30° C.) with 100 μl biotinylated fibrinogen ([…]) containing either vehicle or test compound. The plates are washed, incubated with streptavidin (5 μg/ml, 1 hour, ambient temperature), then washed again before the addition of 100 μl biotinylated horse radish peroxidase (0.1 μg/ml, 1 hour, ambient temperature). The plates are then washed and equal volumes of peroxidase substrate (3, 5, tetramethyl benzidine 0.4 g/l) and H2 O2 (0.02%) are mixed together immediately before addition of 150 μl to each well. Colour is allowed to develop for 10-15 mins before optical densities are read at 650 nm.
The concentration of compound required to cause 50% inhibition of biotinylated fibrinogen binding, is calculated and expressed as a pIC50 (-log(IC50)).

[3] = read-out: Test (a): pA2 value indicating potency of platelet aggregation inhibition (converted)
[4] = read-out: Test (b): pIC50 (-log(IC50)), 50% inhibition of biotinylated fibrinogen binding to GPIIb/IIIa (converted)

T1 sequence (P08514 32-887 limits assumed): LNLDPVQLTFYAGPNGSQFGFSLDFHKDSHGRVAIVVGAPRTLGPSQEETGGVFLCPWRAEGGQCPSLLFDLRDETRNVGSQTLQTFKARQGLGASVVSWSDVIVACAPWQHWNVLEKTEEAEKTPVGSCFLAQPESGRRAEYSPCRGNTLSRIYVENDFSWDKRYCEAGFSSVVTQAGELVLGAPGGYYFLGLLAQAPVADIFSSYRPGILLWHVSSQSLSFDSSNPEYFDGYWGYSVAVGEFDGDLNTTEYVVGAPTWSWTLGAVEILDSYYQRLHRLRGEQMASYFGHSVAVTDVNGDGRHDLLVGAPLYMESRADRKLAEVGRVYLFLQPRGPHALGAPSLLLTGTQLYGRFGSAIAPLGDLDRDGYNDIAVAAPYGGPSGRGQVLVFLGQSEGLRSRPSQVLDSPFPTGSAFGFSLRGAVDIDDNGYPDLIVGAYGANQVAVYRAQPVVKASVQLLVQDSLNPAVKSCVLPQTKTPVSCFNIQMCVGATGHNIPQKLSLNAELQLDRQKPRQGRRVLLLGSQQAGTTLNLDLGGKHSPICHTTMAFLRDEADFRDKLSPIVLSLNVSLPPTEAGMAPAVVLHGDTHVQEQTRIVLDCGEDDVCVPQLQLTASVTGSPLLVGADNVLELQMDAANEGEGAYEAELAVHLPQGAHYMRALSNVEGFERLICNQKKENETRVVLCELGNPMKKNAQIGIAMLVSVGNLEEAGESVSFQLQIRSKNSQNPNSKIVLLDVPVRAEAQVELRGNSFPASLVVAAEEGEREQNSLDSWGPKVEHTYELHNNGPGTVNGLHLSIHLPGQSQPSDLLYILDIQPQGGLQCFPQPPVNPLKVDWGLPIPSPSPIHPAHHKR
T1 sequence (P08514 891-1039 limits assumed): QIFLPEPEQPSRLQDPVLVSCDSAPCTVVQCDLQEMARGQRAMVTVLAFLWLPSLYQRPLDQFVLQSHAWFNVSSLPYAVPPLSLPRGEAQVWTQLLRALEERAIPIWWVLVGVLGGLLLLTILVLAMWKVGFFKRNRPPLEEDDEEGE
T1 sequence (P05106 27-788): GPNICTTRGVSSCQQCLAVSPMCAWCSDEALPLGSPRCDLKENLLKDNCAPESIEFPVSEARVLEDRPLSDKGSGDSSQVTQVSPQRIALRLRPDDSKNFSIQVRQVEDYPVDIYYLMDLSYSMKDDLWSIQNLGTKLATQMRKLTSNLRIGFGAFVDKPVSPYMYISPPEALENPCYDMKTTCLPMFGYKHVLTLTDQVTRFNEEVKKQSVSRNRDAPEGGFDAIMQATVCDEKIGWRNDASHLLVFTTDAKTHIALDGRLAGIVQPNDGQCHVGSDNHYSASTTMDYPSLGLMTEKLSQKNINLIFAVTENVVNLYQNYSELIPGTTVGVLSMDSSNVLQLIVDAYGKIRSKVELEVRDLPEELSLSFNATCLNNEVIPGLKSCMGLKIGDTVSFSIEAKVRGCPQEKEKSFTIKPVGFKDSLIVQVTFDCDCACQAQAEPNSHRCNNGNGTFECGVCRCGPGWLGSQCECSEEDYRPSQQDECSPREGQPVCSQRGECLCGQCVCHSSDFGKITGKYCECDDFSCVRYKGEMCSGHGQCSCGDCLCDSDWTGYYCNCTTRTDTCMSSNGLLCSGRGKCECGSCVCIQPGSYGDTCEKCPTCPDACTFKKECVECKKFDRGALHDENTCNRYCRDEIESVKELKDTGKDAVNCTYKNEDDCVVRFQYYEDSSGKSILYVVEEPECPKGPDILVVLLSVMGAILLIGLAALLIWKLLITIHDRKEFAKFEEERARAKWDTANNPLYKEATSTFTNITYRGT
T2 sequence (P08514 32-887 limits assumed): as the sequence (P08514 32-887 limits assumed) above
T2 sequence (P08514 891-1039 limits assumed): as the sequence (P08514 891-1039 limits assumed) above
T2 sequence (P05106 27-788): as the sequence (P05106 27-788) above

Row | SMILES | Kb [1, 3] [nM] | IC50 [2, 4] [nM] | Kb ([1]; Test (a): pA2 value indicating potency of platelet aggregation inhibition) [nM] | IC50 ([2]; Test (b): pIC50 (-log(IC50)), 50% inhibition of biotinylated fibrinogen binding to GPIIb/IIIa) [nM]
1 | COC(=O)COc1cccc(C(=O)CN2CCN(c3ccncc3)CC2)c1 [Example 119] | 31600 | > 100000 | – | –
2 | O=C(O)COc1cc(OCC(=O)O)cc(C(=O)CN2CCN(c3ccncc3)CC2)c1 [Example 134, Disodium 2,2'-[5-[2-[4-(4-pyridyl)piperazin-1-yl]acetyl]phenylene-1,3-dioxy]diacetate] | 15800 | 25100 | – | –
3 | CS(=O)(=O)NCc1ccc(NC(=O)C2CCN(c3ccncc3)CC2)cc1 [Example 182] | 7940 | 20000 | – | –
4 | CCCCS(=O)(=O)Nc1ccc(C(=O)CN2CCN(c3ccncc3)CC2)cc1 [Example 20, N-4-[2-[4-(4-Pyridyl)piperazin-1-yl]acetyl]phenyl-1-butanesulphonamide] | 5010 | 15800 | – | –
5 | COC(=O)COc1ccc(C(=O)CN2CCN(c3ccnc(C)c3)CC2)cc1 [Example 151, Methyl 4-[2-[4-(2-methylpyrid-4-yl)piperazin-1-yl]acetyl]phenoxyacetate] | 631 | 3980 | – | –
6 | CC(C(=O)c1ccc(OCC(=O)O)cc1)N1CCN(c2ccncc2)CC1 (racemic) [Example 17, RS 4-[2-[4-(4-Pyridyl)piperazin-1-yl]2-methylacetyl]phenoxyacetic acid sodium chloride adduct dihydrate] | – | – | 39.8 | 20
7 | Cc1ccc(S(=O)(=O)N[C@@H](Cc2ccc(OCCC3CCN(c4ccncc4)CC3)cc2)C(=O)O)cc1 [Example 90, Lithium 2-S-(4-methylphenylsulphonylamino)-3-[4-[2-[1-(4-pyridyl)piperidin-4-yl]ethoxy]phenyl]propionate] | 10 | 3.16 | – | –
8 | COC(=O)COc1ccc(NC(=O)C2CCN(c3ccncc3)CC2)cc1 [Example 163, Methyl 4-[[1-(4-pyridyl)piperidin-4-yl]carboxamido]phenoxyacetate, hydrochloride] | 398 | 251 | – | –
9 | O=C(O)CCc1ccc(C(=O)CN2CCN(c3ccncc3)CC2)cc1 [Example 12, 3-[4-[2-[4-(4-Pyridyl)piperazin-1-yl]acetyl]phenyl]propionic acid] | 501 | 63.1 | – | –
10 | CCCCS(=O)(=O)N[C@@H](Cc1ccc(OCCC2CCN(c3ccncc3)CC2)cc1)C(=O)O [Example 36, 2-S-(n-Butylsulphonylamino)-3-[4-[2-[1-(4-pyridyl)piperidin-4-yl]ethoxy]phenyl]propionic acid] | 2 | 1 | – | –
11 | COC(=O)CCNC(=O)c1ccc(N2CCN(c3ccncc3)CC2)cc1 [Example 56, Methyl 3-[4-[4-(4-pyridyl)piperazin-1-yl]]benzaminopropionate] | 3160 | 15800 | – | –
12 | CCOC(=O)C1CCN(C(=O)CN2CCN(c3ccncc3)CC2)CC1 [Example 27, Ethyl 1-[2-[4-(4-pyridyl)piperazin-1-yl]acetyl]piperidin-4-carboxylate] | 7940 | 2510 | – | –
13 | CS(=O)(=O)N[C@@H](Cc1ccc(OCCC2CCN(c3ccncc3)CC2)cc1)C(=O)O [Example 88, 2-S-(Methylsulphonylamino)-3-[4-[2-[1-(4-pyridyl)piperidin-4-yl]ethoxy]phenyl]propionic acid] | 1 | 2.51 | – | –
14 | O=C(O)COc1ccc(C(=O)CN2CCC(=Cc3cnccc3N3CCCC3)C2)cc1 [Example 108, 4-[2-[3-[4-(1-Pyrrolidinyl)pyridin-3yl]methylidene]pyrrolidin-1-yl]-acetylphenoxyacetic acid] | 501 | 1260 | – | –
15 | O=C(O)COc1ccc(C(=O)CN2CCN(c3ccncc3)CC2)c(OCC(=O)O)c1 [Example 129, 2,2'-[4-[2-[4-(4-Pyridyl)piperazin-1-yl]acetyl]phenylene-1,3-dioxy]diaceticacid, dihydrochloride] | 12.6 | 316 | – | –
16 | CC(C)(C)OC(=O)COC1CCCN(C(=O)CN2CCN(c3ccncc3)CC2)C1 (centres unmarked) [Example 103, Tert-butyl 1-[2-[4-(4-pyridyl)piperazin-1in-1-yl]acetyl]piperidin-3-yloxyacetate] | 31600 | 7940 | – | –
